Earlier results in patent EP0374532B1, “Improved phase separation-microencapsulated pharmaceutical compositions useful for alleviating dental disease” (AMERICAN CYANAMID COMPANY, priority 1988, dated 1990).

Conditions: human periodontal fluid versus serum

CN(C)c1ccc(O)c2c1C[C@H]1C[C@H]3[C@H](N(C)C)C(O)=C(C(N)=O)C(=O)[C@@]3(O)C(O)=C1C2=O [minocycline, 7-dimethylamino-6-deoxy-6-demethyltetracycline]
levels in human periodontal fluid higher than serum levels: five
